Assay results reported in ChEMBL document CHEMBL5465560, “Selectivity Literature for EUbOPEN Chemogenomic Library” (2024).
Values belong to the compound of their own block, whether it stands above or below them.

Experiments:
[1] = molecular target: Insulin receptor (Homo sapiens, UniProt P06213); settings: at 3 µM
[2] = molecular target: Aurora kinase A (Homo sapiens, UniProt O14965); assay: Selectivity interaction (Radiometric kinase assay (using 10 uM ATP)) EUB0000601a STK6
[3] = molecular target: T1, Myosin-IIIb (Homo sapiens) (UniProt Q8WXR4); assay: Selectivity interaction (KinomeScan (DiscoverX)) EUB0001049a MYO3B; settings: at 1 µM
T1 sequence (whole entry): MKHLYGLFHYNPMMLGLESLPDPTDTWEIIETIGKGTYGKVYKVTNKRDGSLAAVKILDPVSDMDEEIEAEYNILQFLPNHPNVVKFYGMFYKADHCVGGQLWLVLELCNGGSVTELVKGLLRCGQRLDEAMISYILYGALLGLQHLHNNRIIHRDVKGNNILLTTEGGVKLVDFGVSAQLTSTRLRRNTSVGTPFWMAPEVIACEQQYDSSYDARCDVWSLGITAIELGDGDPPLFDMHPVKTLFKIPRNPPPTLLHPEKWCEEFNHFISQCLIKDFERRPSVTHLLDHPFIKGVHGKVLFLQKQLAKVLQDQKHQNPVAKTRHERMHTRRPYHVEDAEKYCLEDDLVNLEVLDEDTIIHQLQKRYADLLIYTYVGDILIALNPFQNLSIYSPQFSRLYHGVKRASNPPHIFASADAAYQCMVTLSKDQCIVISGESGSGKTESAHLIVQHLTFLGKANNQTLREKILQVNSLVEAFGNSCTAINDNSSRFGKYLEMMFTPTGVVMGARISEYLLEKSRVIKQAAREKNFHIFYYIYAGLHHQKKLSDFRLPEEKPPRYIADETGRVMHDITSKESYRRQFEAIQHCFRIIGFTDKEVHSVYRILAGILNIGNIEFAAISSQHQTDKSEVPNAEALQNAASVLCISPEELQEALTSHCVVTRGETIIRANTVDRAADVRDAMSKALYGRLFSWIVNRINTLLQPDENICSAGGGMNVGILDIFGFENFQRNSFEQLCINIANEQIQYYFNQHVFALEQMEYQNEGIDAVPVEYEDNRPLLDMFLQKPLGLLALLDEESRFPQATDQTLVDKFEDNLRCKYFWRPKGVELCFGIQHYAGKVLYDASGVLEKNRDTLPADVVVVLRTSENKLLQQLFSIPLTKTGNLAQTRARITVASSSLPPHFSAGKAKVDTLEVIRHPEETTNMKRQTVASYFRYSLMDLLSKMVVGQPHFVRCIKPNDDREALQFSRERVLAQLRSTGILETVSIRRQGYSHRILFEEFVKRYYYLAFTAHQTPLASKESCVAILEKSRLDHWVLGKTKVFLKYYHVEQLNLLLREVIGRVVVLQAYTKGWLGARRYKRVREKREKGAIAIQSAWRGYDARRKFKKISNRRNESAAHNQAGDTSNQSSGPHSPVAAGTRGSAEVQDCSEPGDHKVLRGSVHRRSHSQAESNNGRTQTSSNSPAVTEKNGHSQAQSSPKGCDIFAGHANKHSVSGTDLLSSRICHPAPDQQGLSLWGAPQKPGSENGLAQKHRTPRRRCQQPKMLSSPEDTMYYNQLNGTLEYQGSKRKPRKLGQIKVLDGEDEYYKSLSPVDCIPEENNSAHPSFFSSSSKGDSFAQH

[4] = molecular target: Histone acetyltransferase p300 (Homo sapiens) (UniProt Q09472); assay: Selectivity interaction (Transferase panel (protein, RNA, and DNA methyltransferases. and EP300 (acetyltransferase))) EUB0000270b EP300
[5] = molecular target: Protein arginine N-methyltransferase 6 (Homo sapiens, UniProt Q96LA8); assay: Selectivity interaction (Transferase panel (protein, RNA, and DNA methyltransferases. and EP300 (acetyltransferase))) EUB0000270b PRMT6
[6] = molecular target: Tyrosine-protein kinase receptor UFO (Homo sapiens, UniProt P30530); assay: Selectivity interaction (Kinase panel (33PanQinase(R) Activity Assay)) EUB0000877a AXL
[7] = molecular target: RAC-alpha serine/threonine-protein kinase (Homo sapiens, UniProt P31749); assay: Selectivity interaction (KinomeScan (DiscoverX)) EUB0000092b AKT1; settings: at 10 µM
[8] = molecular target: Tyrosine-protein kinase Blk (Homo sapiens) (UniProt P51451); assay: Selectivity interaction (KinomeScan (DiscoverX)) EUB0000045b BLK
[9] = molecular target: T2, Serine/threonine-protein kinase D1 (Homo sapiens) (UniProt Q15139); assay: Selectivity interaction (SelectScreen profiling (Invitrogen)) EUB0000607a PRKD1; settings: at 2 µM
T2 sequence (whole entry): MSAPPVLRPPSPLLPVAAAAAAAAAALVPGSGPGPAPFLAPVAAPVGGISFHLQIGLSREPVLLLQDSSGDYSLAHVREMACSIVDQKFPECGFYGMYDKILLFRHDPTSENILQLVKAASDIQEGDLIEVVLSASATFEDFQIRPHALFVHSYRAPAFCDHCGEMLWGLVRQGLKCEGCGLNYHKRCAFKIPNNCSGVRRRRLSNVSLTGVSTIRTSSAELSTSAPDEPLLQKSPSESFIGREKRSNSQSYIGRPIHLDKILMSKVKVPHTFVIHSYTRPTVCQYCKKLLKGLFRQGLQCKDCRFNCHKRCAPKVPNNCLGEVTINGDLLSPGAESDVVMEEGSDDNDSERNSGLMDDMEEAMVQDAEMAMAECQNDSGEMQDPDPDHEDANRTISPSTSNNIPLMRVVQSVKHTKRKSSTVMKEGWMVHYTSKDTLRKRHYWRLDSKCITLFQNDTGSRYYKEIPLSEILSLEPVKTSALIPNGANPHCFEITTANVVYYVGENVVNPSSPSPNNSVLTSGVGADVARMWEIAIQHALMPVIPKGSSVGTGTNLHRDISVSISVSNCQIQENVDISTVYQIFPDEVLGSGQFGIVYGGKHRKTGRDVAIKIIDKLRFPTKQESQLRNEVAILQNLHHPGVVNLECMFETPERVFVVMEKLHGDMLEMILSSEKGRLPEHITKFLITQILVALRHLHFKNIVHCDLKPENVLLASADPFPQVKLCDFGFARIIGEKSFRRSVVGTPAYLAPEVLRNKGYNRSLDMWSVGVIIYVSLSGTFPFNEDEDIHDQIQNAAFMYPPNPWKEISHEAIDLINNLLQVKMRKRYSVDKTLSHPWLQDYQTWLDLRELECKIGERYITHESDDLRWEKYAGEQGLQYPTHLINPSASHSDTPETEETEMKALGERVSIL

[10] = molecular target: Cyclin-dependent kinase 17 (Homo sapiens) (UniProt Q00537); assay: Selectivity interaction (Kinase panel (KiNativ target engagement assay in Jurkat cells)) EUB0001635a CDK17; format: cell-based; settings: Selectivity number of off-targets 0.0, Selectivity number of targets 233.0, Source Knowledge https://www.sciencedirect.com/science/article/pii/S2451945619300674?via%3Dihub, at 1 µM
Chain of Cyclin-dependent kinase 17 (Homo sapiens) (Q00537 whole entry, looked up): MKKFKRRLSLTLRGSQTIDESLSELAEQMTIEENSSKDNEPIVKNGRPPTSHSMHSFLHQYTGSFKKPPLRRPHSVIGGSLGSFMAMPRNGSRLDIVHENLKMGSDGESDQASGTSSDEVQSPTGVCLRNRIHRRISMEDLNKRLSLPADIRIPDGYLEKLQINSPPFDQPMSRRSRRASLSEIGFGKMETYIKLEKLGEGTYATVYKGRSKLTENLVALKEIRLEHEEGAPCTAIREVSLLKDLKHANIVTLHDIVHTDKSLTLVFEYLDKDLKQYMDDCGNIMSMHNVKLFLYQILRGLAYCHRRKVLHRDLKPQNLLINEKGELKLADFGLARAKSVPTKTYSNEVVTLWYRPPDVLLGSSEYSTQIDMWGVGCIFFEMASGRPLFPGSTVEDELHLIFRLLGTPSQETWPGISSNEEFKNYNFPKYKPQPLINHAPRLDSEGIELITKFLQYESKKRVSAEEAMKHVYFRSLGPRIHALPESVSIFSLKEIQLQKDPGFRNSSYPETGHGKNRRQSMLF

Chain of Protein arginine N-methyltransferase 6 (Q96LA8 whole entry, looked up): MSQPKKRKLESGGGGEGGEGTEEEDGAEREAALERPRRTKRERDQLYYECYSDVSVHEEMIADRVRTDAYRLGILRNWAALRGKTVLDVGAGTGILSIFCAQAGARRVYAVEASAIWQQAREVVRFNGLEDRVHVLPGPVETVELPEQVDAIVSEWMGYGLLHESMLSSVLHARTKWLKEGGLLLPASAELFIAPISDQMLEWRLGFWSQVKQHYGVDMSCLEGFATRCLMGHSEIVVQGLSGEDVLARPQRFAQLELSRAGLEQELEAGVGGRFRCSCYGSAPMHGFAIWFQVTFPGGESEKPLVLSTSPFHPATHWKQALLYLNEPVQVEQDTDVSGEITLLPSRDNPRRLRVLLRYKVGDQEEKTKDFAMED
Chain of Tyrosine-protein kinase Blk (Homo sapiens) (P51451 2-505 limits assumed): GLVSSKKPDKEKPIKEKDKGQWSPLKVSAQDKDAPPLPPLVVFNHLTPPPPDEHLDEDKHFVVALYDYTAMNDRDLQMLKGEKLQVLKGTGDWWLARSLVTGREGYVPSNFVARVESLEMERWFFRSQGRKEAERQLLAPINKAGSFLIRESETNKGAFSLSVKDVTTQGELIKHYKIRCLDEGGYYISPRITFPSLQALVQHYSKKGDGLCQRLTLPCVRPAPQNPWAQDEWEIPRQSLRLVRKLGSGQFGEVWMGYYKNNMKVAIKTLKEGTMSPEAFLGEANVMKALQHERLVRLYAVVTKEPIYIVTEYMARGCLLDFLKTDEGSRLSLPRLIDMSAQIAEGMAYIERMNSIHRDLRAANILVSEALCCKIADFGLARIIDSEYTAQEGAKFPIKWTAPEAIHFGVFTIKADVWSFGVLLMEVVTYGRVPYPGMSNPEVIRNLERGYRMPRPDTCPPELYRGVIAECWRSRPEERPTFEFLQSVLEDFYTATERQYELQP
Chain of Histone acetyltransferase p300 (Homo sapiens) (Q09472 whole entry): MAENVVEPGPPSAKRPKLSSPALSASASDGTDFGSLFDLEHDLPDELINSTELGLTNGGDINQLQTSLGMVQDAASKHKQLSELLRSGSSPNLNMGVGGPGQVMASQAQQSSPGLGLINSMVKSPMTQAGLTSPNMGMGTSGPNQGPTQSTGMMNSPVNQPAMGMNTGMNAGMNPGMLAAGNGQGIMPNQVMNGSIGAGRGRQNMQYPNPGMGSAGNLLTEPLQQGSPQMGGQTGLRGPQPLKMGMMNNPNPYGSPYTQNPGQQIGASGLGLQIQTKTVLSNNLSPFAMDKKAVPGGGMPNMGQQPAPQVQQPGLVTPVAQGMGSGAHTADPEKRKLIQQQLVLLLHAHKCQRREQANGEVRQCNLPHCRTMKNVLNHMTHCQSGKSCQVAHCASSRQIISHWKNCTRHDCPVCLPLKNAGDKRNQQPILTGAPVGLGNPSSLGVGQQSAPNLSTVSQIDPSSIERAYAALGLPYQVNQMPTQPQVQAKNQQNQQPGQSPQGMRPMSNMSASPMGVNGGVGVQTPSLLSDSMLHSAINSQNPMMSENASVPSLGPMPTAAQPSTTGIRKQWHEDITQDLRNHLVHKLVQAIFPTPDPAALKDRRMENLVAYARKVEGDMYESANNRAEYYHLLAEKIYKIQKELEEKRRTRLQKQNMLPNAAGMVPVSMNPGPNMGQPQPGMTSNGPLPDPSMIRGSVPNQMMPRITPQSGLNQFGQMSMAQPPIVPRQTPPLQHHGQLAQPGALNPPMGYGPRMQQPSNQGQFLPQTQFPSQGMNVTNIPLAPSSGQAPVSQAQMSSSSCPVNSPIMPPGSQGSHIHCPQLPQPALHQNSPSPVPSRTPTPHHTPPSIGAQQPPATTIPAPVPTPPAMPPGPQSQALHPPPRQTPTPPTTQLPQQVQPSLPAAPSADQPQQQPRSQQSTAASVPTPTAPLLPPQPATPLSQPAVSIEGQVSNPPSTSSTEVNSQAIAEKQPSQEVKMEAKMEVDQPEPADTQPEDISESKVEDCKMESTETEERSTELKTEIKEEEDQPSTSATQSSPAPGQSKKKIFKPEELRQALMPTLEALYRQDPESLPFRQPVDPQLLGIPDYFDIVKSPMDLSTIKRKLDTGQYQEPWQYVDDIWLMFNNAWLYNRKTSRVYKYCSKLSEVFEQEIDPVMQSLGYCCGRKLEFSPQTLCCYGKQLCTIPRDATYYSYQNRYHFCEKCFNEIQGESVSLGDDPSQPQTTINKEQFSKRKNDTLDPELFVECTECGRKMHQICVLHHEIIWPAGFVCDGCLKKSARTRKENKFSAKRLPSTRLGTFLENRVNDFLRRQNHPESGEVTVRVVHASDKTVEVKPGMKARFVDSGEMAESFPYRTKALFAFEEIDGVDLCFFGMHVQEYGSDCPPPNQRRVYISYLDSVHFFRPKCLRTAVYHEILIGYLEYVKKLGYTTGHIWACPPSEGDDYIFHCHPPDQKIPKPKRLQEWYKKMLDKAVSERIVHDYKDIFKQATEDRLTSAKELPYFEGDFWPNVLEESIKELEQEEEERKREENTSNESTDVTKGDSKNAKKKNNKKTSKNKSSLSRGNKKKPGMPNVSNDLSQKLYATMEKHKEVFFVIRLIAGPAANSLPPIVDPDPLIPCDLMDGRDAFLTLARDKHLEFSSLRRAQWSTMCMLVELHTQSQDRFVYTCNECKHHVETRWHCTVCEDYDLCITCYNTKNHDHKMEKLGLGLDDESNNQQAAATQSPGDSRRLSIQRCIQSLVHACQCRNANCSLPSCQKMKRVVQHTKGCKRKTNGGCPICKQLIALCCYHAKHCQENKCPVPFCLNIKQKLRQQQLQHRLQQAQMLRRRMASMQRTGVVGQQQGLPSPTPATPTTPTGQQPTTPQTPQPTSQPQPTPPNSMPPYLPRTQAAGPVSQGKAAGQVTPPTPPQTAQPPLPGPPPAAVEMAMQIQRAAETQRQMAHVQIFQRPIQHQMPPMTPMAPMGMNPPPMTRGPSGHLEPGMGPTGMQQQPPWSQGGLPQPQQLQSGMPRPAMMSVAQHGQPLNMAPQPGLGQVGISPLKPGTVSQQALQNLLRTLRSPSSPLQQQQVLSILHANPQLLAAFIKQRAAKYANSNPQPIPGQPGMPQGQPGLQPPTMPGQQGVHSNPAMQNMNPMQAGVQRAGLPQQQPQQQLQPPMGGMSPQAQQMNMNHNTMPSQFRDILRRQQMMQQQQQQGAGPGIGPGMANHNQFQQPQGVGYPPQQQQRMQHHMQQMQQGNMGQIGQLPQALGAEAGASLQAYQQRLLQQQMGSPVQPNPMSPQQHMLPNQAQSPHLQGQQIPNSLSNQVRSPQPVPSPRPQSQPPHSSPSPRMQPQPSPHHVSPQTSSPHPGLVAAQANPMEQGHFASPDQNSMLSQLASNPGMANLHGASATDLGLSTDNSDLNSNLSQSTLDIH
Chain of RAC-alpha serine/threonine-protein kinase (P31749 whole entry): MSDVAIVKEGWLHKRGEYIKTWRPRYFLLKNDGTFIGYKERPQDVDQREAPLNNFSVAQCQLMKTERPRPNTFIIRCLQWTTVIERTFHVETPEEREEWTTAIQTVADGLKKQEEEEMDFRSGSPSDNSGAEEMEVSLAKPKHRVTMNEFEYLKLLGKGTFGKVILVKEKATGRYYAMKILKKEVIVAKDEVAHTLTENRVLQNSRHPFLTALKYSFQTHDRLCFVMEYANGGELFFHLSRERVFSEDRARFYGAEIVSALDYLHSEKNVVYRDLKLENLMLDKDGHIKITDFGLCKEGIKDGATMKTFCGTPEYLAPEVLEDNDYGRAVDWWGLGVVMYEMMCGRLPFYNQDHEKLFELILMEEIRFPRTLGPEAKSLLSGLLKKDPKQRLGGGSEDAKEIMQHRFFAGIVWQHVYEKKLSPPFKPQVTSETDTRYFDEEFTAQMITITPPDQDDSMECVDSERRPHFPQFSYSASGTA
Chain of Aurora kinase A (O14965 whole entry): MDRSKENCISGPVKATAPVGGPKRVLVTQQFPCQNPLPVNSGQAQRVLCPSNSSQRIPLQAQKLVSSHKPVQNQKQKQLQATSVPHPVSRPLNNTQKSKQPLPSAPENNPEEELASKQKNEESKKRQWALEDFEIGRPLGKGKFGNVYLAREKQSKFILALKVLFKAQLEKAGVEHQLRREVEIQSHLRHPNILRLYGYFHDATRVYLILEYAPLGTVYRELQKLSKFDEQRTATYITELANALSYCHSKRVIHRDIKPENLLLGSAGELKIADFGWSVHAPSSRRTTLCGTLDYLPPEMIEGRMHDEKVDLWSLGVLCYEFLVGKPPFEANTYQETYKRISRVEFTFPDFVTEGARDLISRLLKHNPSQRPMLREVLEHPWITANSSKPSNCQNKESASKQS

% of inhibition [1]: 69%
IC50 [2]: > 1.5 µM
SMILES: CCc1cc(Nc2nccc(-c3c(-c4ccc(OC)c(C(=O)Nc5c(F)cccc5F)c4)nc4ccccn34)n2)c(OC)cc1N1CCC(N2CCN(S(C)(=O)=O)CC2)CC1

SMILES: COc1cc(Nc2nc(C)cc(-c3cnn4nc(OC)ccc34)n2)cc(C(F)(F)F)c1
% of control [3]: 100%

% activity ([4]; at 1 µM): > 90%
% activity ([4]; at 10 µM): > 80%
% activity ([5]; at 1 µM): > 90%
% activity ([5]; at 10 µM): > 80%
SMILES: Cc1cc(CN)cc(C)c1-c1ncn(C)c1-c1cncn1C

IC50 [6]: > 10 µM
SMILES: CCC(=O)N1CC[C@H](Nc2ncnc3c2CN(c2cnc(OC)c(C(F)(F)F)c2)CC3)C1 [LENIOLISIB]

SMILES: CCC(=O)N1CCN(c2ccc(-n3c(=O)ccc4cnc5ccc(-c6cnc7ccccc7c6)cc5c43)cc2C(F)(F)F)CC1
% of control [7]: 91%

SMILES: C=CC(=O)Nc1cc(-n2c(=O)ccc3cnc4ccc(-c5ccc(NS(C)(=O)=O)cc5)cc4c32)ccc1C
% of control ([8]; at 1 µM): 40%
% of control ([8]; at 10 µM): 4.8%

SMILES: CNC(=O)Nc1ccc(-c2nc(N3CC4CCC(C3)O4)c3cnn(C4CCC5(CC4)OCCO5)c3n2)cc1
% of inhibition [9]: 0%

SMILES: C=CC(=O)Nc1ccc(C(=O)Nc2[nH]nc3c2CN(C(=O)N[C@H](CN(C)C)c2ccccc2)C3(C)C)cc1
% of engagement [10]: 12.8%
